Experimental data published in the NIST ThermoML archive (doi:10.1016/j.jct.2014.07.019).
Numbers after ± are expanded uncertainties.

Assay: xn = mol fraction of the nth substance listed
Settings: 100 kPa, Liquid; for speed of sound: Frequency=3 MHz, Sing-around technique in a fixed-path interferometer; for mass density: Vibrating tube method

CCCCOCC(C)O (stereo not given) [1-butoxy-2-propanol] + CC(C)O
Settings | mass density, 293.15 K [kg/m3] | mass density, 298.15 K [kg/m3] | mass density, 303.15 K [kg/m3] | mass density, 308.15 K [kg/m3] | mass density, 313.15 K [kg/m3] | speed of sound, 293.15 K [m/s] | speed of sound, 298.15 K [m/s] | speed of sound, 303.15 K [m/s] | speed of sound, 308.15 K [m/s] | speed of sound, 313.15 K [m/s]
x1 = 0.0518 | 795.249 ± 0.15 | 791.104 ± 0.15 | 787.006 ± 0.15 | 782.711 ± 0.15 | 778.081 ± 0.16 | 1178.7 ± 1.2 | 1159 ± 1.2 | 1141.8 ± 1.2 | 1124.3 ± 1.2 | 1103.5 ± 1.2
x1 = 0.1029 | 803.695 ± 0.15 | 799.527 ± 0.15 | 795.386 ± 0.15 | 791.07 ± 0.15 | 786.435 ± 0.15 | 1188.9 ± 1.2 | 1168.9 ± 1.2 | 1150.7 ± 1.2 | 1133.2 ± 1.2 | 1111.5 ± 1.2
x1 = 0.1532 | 811.327 ± 0.15 | 807.143 ± 0.15 | 802.969 ± 0.15 | 798.631 ± 0.15 | 793.996 ± 0.15 | 1197.5 ± 1.2 | 1178.3 ± 1.2 | 1159.2 ± 1.2 | 1141.6 ± 1.2 | 1121.5 ± 1.2
x1 = 0.2019 | 818.045 ± 0.15 | 813.834 ± 0.15 | 809.64 ± 0.15 | 805.279 ± 0.15 | 800.656 ± 0.15 | 1205.8 ± 1.2 | 1186.1 ± 1.2 | 1166.8 ± 1.2 | 1149.2 ± 1.2 | 1129.9 ± 1.2
x1 = 0.2529 | 824.525 ± 0.14 | 820.286 ± 0.15 | 816.061 ± 0.15 | 811.703 ± 0.15 | 807.104 ± 0.15 | 1213.9 ± 1.2 | 1194.4 ± 1.2 | 1174.2 ± 1.2 | 1156.5 ± 1.2 | 1138.4 ± 1.2
x1 = 0.3032 | 830.352 ± 0.14 | 826.103 ± 0.14 | 821.857 ± 0.14 | 817.482 ± 0.15 | 812.872 ± 0.15 | 1221.8 ± 1.2 | 1201.3 ± 1.2 | 1181 ± 1.2 | 1163.2 ± 1.2 | 1146.6 ± 1.2
x1 = 0.4059 | 840.824 ± 0.14 | 836.541 ± 0.14 | 832.254 ± 0.14 | 827.85 ± 0.14 | 823.26 ± 0.15 | 1234.6 ± 1.2 | 1214 ± 1.2 | 1193.5 ± 1.2 | 1175.7 ± 1.2 | 1159.4 ± 1.2
x1 = 0.5048 | 849.502 ± 0.14 | 845.196 ± 0.14 | 840.881 ± 0.14 | 836.456 ± 0.14 | 831.887 ± 0.15 | 1244.9 ± 1.2 | 1225.3 ± 1.2 | 1204.4 ± 1.2 | 1186.7 ± 1.2 | 1170.3 ± 1.2
x1 = 0.604 | 857.039 ± 0.14 | 852.718 ± 0.14 | 848.373 ± 0.14 | 843.934 ± 0.14 | 839.389 ± 0.15 | 1253.3 ± 1.2 | 1234.6 ± 1.2 | 1214.4 ± 1.2 | 1196.6 ± 1.2 | 1179.7 ± 1.2
x1 = 0.7012 | 863.524 ± 0.14 | 859.19 ± 0.14 | 854.833 ± 0.14 | 850.391 ± 0.15 | 845.859 ± 0.15 | 1261.2 ± 1.2 | 1243 ± 1.2 | 1222.6 ± 1.2 | 1204.8 ± 1.2 | 1187.9 ± 1.2
x1 = 0.8028 | 869.466 ± 0.14 | 865.108 ± 0.14 | 860.733 ± 0.15 | 856.287 ± 0.15 | 851.775 ± 0.15 | 1267.7 ± 1.2 | 1250.2 ± 1.2 | 1230.5 ± 1.2 | 1212.8 ± 1.2 | 1195.7 ± 1.2
x1 = 0.8545 | 872.203 ± 0.14 | 867.842 ± 0.14 | 863.464 ± 0.15 | 859.022 ± 0.15 | 854.514 ± 0.15 | 1270.6 ± 1.2 | 1254.6 ± 1.2 | 1234 ± 1.2 | 1216.2 ± 1.2 | 1199.3 ± 1.2
x1 = 0.9056 | 874.745 ± 0.14 | 870.379 ± 0.15 | 865.982 ± 0.15 | 861.537 ± 0.15 | 857.049 ± 0.15 | 1273.4 ± 1.3 | 1257.5 ± 1.2 | 1237.5 ± 1.2 | 1219.7 ± 1.2 | 1202.1 ± 1.2
x1 = 0.954 | 876.996 ± 0.15 | 872.629 ± 0.15 | 868.284 ± 0.15 | 863.829 ± 0.15 | 859.355 ± 0.15 | 1275.9 ± 1.3 | 1259.8 ± 1.3 | 1240.6 ± 1.3 | 1222.9 ± 1.2 | 1204.7 ± 1.2
x1 = 1 | 879.031 ± 0.15 | 874.632 ± 0.15 | 870.204 ± 0.15 | 865.737 ± 0.15 | 861.241 ± 0.15 | 1279 ± 1.3 | 1260.9 ± 1.3 | 1242.9 ± 1.3 | 1224.9 ± 1.3 | 1207 ± 1.3
